Data published in ChEMBL document CHEMBL1201862, “PubChem BioAssay data set” (2004).
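A five-concentration, 48-hour dose response in 96-well plates underlies each endpoint, interpolated linearly between surrounding concentrations. The concentration for 50% growth inhibition is given as GI50.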 Calls of active or inactive are those of the source. Cut-off read from the data, not from the text of the source: active = GI50 up to about 1.1 µM and inactive = higher.

Assays:
Test in all cases: NCI anticancer screen, dose series, 48 h
[1] = test system: SNB-19
[2] = test system: RPMI-8226
[3] = test system: K562
[4] = test system: MCF7
[5] = test system: ACHN
[6] = test system: HOP-92
[7] = test system: NCI-H23
[8] = test system: PC-3
[9] = test system: 786-0
[10] = test system: DU-145
[11] = test system: IGROV-1
[12] = test system: EKVX
[13] = test system: HCC 2998
[14] = test system: Hs-578T
[15] = test system: MDA-MB-435
[16] = test system: BT-549
[17] = test system: OVCAR-5
[18] = test system: A549
[19] = test system: CCRF-CEM
[20] = test system: M14
[21] = test system: RXF 393
[22] = test system: SF-295
[23] = test system: NCI-H522
[24] = test system: HT-29
[25] = test system: UACC-257
[26] = test system: U-251
[27] = test system: KM12
[28] = test system: SR
[29] = test system: A498
[30] = test system: NCI/ADR-RES
[31] = test system: MOLT-4
[32] = test system: HOP-62
[33] = test system: MDA-N
[34] = test system: SW-620
[35] = test system: SF-268
[36] = test system: UACC-62
[37] = test system: SK-OV-3
[38] = test system: OVCAR-8
[39] = test system: TK-10
[40] = test system: OVCAR-4
[41] = test system: NCI-H226
[42] = test system: HL-60
[43] = test system: SK-MEL-28
[44] = test system: UO-31
[45] = test system: Malme-3M
[46] = test system: HCT-116
[47] = test system: SN12C
[48] = test system: SF-539
[49] = test system: SK-MEL-5
[50] = test system: HCT-15
[51] = test system: MDA-MB-231
[52] = test system: CAKI-1
[53] = test system: LOX IMVI
[54] = test system: SNB-75
[55] = test system: T47D
[56] = test system: SK-MEL-2
[57] = test system: COLO 205
[58] = test system: OVCAR-3
[59] = test system: NCI-H460

O=S(=O)(O)/C(=N\c1cccc(Cc2ccccc2)c1)Nc1cccc(Cc2ccccc2)c1
GI50 [1]: 21.2 µM (inactive)
GI50 [2]: 23.8 µM (inactive)
GI50 [3]: 31.4 µM (inactive)
GI50 [4]: 19.2 µM (inactive)
GI50 [5]: 17.4 µM (inactive)
GI50 [6]: 14.9 µM (inactive)
GI50 [7]: 16.4 µM (inactive)
GI50 [8]: 18.3 µM (inactive)
GI50 [9]: 15.2 µM (inactive)
GI50 [10]: 17 µM (inactive)
GI50 [11]: 16.6 µM (inactive)
GI50 [12]: 16.7 µM (inactive)
GI50 [13]: 18.8 µM (inactive)
GI50 [14]: 19.1 µM (inactive)
GI50 [15]: 20.1 µM (inactive)
GI50 [16]: 17.7 µM (inactive)
GI50 [17]: 18.1 µM (inactive)
GI50 [18]: 22.4 µM (inactive)
GI50 [19]: 27.2 µM (inactive)
GI50 [20]: 16.4 µM (inactive)
GI50 [21]: 16.4 µM (inactive)
GI50 [22]: 18.2 µM (inactive)
GI50 [23]: 14.9 µM (inactive)
GI50 [24]: 18 µM (inactive)
GI50 [25]: 24.2 µM (inactive)
GI50 [26]: 19.6 µM (inactive)
GI50 [27]: 17.3 µM (inactive)
GI50 [28]: 21.9 µM (inactive)
GI50 [29]: 22.4 µM (inactive)
GI50 [30]: 18.2 µM (inactive)
GI50 [31]: 32.1 µM (inactive)
GI50 [32]: 32.6 µM (inactive)
GI50 [33]: 20.4 µM (inactive)
GI50 [34]: 23.7 µM (inactive)
GI50 [35]: 17.7 µM (inactive)
GI50 [36]: 16.5 µM (inactive)
GI50 [37]: 21 µM (inactive)
GI50 [38]: 18.5 µM (inactive)
GI50 [39]: 19.8 µM (inactive)
GI50 [40]: 19.5 µM (inactive)
GI50 [41]: 18 µM (inactive)
GI50 [42]: 33.4 µM (inactive)
GI50 [43]: 19.6 µM (inactive)
GI50 [44]: 15.8 µM (inactive)
GI50 [45]: 17.5 µM (inactive)
GI50 [46]: 14.9 µM (inactive)
GI50 [47]: 19.5 µM (inactive)
GI50 [48]: 16.3 µM (inactive)
GI50 [49]: 18.1 µM (inactive)
GI50 [50]: 17.6 µM
GI50 [51]: 17.8 µM (inactive)
GI50 [52]: 42.5 µM (inactive)
GI50 [53]: 12.9 µM (inactive)
GI50 [54]: 16.1 µM (inactive)
GI50 [55]: 15.8 µM (inactive)
GI50 [56]: 21.6 µM (inactive)
GI50 [57]: 18.3 µM (inactive)

Brc1c(C#CCC(c2ccccc2)(c2ccccc2)c2ccccc2)ccc(C#CCC(c2ccccc2)(c2ccccc2)c2ccccc2)c1Br
GI50 [1]: > 100 µM (inactive)
GI50 [2]: > 100 µM (inactive)
GI50 [3]: > 100 µM (inactive)
GI50 [4]: > 100 µM (inactive)
GI50 [5]: > 100 µM (inactive)
GI50 [6]: > 100 µM (inactive)
GI50 [7]: > 100 µM (inactive)
GI50 [8]: > 100 µM (inactive)
GI50 [9]: > 100 µM (inactive)
GI50 [10]: > 100 µM (inactive)
GI50 [11]: > 100 µM (inactive)
GI50 [12]: > 100 µM (inactive)
GI50 [13]: > 100 µM (inactive)
GI50 [14]: > 100 µM (inactive)
GI50 [15]: > 100 µM (inactive)
GI50 [16]: > 100 µM (inactive)
GI50 [17]: > 100 µM (inactive)
GI50 [18]: > 100 µM (inactive)
GI50 [19]: > 100 µM (inactive)
GI50 [20]: > 100 µM (inactive)
GI50 [21]: > 100 µM (inactive)
GI50 [22]: > 100 µM (inactive)
GI50 [23]: > 100 µM (inactive)
GI50 [24]: > 100 µM (inactive)
GI50 [25]: > 100 µM (inactive)
GI50 [26]: > 100 µM (inactive)
GI50 [27]: > 100 µM (inactive)
GI50 [28]: > 100 µM (inactive)
GI50 [29]: > 100 µM (inactive)
GI50 [30]: > 100 µM (inactive)
GI50 [31]: > 100 µM (inactive)
GI50 [33]: > 100 µM (inactive)
GI50 [34]: > 100 µM (inactive)
GI50 [35]: > 100 µM (inactive)
GI50 [36]: > 100 µM (inactive)
GI50 [37]: > 100 µM (inactive)
GI50 [38]: > 100 µM (inactive)
GI50 [39]: > 100 µM (inactive)
GI50 [40]: > 100 µM (inactive)
GI50 [41]: > 100 µM (inactive)
GI50 [42]: > 100 µM (inactive)
GI50 [43]: > 100 µM (inactive)
GI50 [44]: > 100 µM (inactive)
GI50 [45]: > 100 µM (inactive)
GI50 [46]: > 100 µM (inactive)
GI50 [47]: > 100 µM (inactive)
GI50 [48]: > 100 µM (inactive)
GI50 [49]: > 100 µM (inactive)
GI50 [50]: > 100 µM
GI50 [58]: > 100 µM (inactive)
GI50 [59]: > 100 µM (inactive)
GI50 [51]: > 100 µM (inactive)
GI50 [52]: > 100 µM (inactive)
GI50 [54]: > 100 µM (inactive)
GI50 [55]: > 100 µM (inactive)
GI50 [56]: > 100 µM (inactive)
GI50 [57]: > 100 µM (inactive)

Fc1ccc(/N=C/C=C/Nc2ccc(F)cc2)cc1
GI50 [1]: 13.3 µM (inactive)
GI50 [2]: 12.4 µM (inactive)
GI50 [3]: 0.278 µM (active)
GI50 [4]: 11.7 µM (inactive)
GI50 [5]: 0.11 µM (active)
GI50 [6]: 17.6 µM (inactive)
GI50 [7]: 15 µM (inactive)
GI50 [8]: 8.91 µM (inactive)
GI50 [9]: 4.3 µM (inactive)
GI50 [10]: 13.5 µM (inactive)
GI50 [11]: 12.8 µM (inactive)
GI50 [12]: 12.9 µM (inactive)
GI50 [13]: 3.05 µM (inactive)
GI50 [14]: 19.9 µM (inactive)
GI50 [15]: 5.3 µM (inactive)
GI50 [16]: 14.1 µM (inactive)
GI50 [17]: 12.1 µM (inactive)
GI50 [18]: 8.67 µM (inactive)
GI50 [19]: 4.67 µM (inactive)
GI50 [20]: 0.137 µM (active)
GI50 [21]: 15.8 µM (inactive)
GI50 [22]: 8.28 µM (inactive)
GI50 [23]: 13.5 µM (inactive)
GI50 [24]: 5.35 µM (inactive)
GI50 [25]: 13.5 µM (inactive)
GI50 [26]: 7.41 µM (inactive)
GI50 [27]: 3.31 µM (inactive)
GI50 [28]: 2.44 µM (inactive)
GI50 [29]: 15.5 µM (inactive)
GI50 [30]: 11.9 µM (inactive)
GI50 [31]: 12.9 µM (inactive)
GI50 [32]: 17.7 µM (inactive)
GI50 [33]: 2.75 µM (inactive)
GI50 [34]: 3.32 µM (inactive)
GI50 [35]: 13.4 µM (inactive)
GI50 [36]: 0.509 µM (active)
GI50 [37]: 15.3 µM (inactive)
GI50 [38]: 12.9 µM (inactive)
GI50 [40]: 15.3 µM (inactive)
GI50 [41]: 19.5 µM (inactive)
GI50 [42]: 2.26 µM (inactive)
GI50 [43]: 7.5 µM (inactive)
GI50 [44]: 6.73 µM (inactive)
GI50 [45]: 16.4 µM (inactive)
GI50 [46]: 3 µM (inactive)
GI50 [47]: 14 µM (inactive)
GI50 [48]: 14.1 µM (inactive)
GI50 [49]: 4.84 µM (inactive)
GI50 [50]: 0.31 µM
GI50 [58]: 16 µM (inactive)
GI50 [59]: 6.19 µM (inactive)
GI50 [51]: 15.8 µM (inactive)
GI50 [52]: 12.7 µM (inactive)
GI50 [53]: 0.817 µM (active)
GI50 [54]: 15 µM (inactive)
GI50 [55]: 6.37 µM (inactive)
GI50 [56]: 13.6 µM (inactive)
GI50 [57]: 1.55 µM (inactive)
